Earlier results in patent US11273137B2, “Methods and compositions to prevent and treat disorders associated with mutations in the ODC1 gene” (Board of Trustees of Michigan State University, priority 2018, dated 2022).

Experiments:
[1] = test system: transgenic mice overexpressing c-terminally deleted ODC (p.P427X)
[2] = transgenic mice with c-terminally deleted ODC

- water solubility: water soluble
SMILES: NCCC[C@](N)(C(=O)O)C(F)F [DFMO, alpha-difluoromethylornithine]
- phenotypic changes (skin and hair follicle abnormalities, alopecia) ([1]; heterozygous transgenic mice with c-terminal 34 aa ODC deletion targeted to the skin): reversible
- hair growth ([1]; mice with complete hair loss): partially restored hair growth
- hair loss [1, 2]: prevented hair loss
- reappearance of normal follicles [1, 2]: activated reappearance of normal follicles
